From patent publication US4714705A, “4-nitrogen substituted isoquinolinol compounds having cardiotonic, phosphodiesterase fraction III inhibiting properties and/or renal vasodilating properties” (Ortho Pharmaceutical Corporation, priority 1986, dated 1987) come the findings set out here.

The structures appear in SMILES notation. Read-outs that look alike come from different tables or passages of the source.

In assay [1] the test system is adult mongrel dogs. As to the kind of experiment: Acute in vivo cardiotonic activity in anesthetized dogs. Details: species or system dog (adult mongrel). Conditions: Canis lupus familiaris, relative to controls; for change in vivo at 8.75 mg/kg: 8.75 mg/kg intravenous; for change in vivo at 1.875 mg/kg: 1.875 mg/kg intravenous; for change in vivo at 0.12 mg/kg: 0.12 mg/kg intravenous; for change in vivo at 0.15 mg/kg: 0.150 mg/kg intravenous. The method, then:
The acute in vivo cardiotonic activity of compounds prepared according to the present invention was determined according to a modification of the procedure described by Alousi et al., Circ. Res., 45, 666 (1979).
In particular, adult mongrel dogs were anesthetized with sodium pentobarbital and were artificially respired. Arterial pressure was monitored via a femoral artery, and the pulse pressure was used to trigger a cardiotachometer for heart rate. Left ventricular pressure was determined with a Millar catheter, and dP/dt (the change in ventricular pressure with time) was derived. Cardiac output was determined by measuring ascending aortic blood flow with an electromagnetic flow probe, and myocardial contractile force was measured with a Walton Brodie strain gauge sutured to the right ventricle. Lead II EKG was also recorded.
A standard dose (10 μ/kg/min) of dopamine was administered to assess myocardial responsiveness.
Compounds of the invention were administered by intravenous infusion or bolus oral administration, and the effects on cardiovascular parameters were determined.
Dose related effects on the test compound on blood pressure (BP), heart rate (HR), maximum change in left ventricular pressure with time (dP/dt max), % change in cardiac force (CF) and the increase in mean arterial blood pressure relative to controls (MABP) were compared to pretreatment control values, expressed as a % change and rated for activity. Statistical evaluations were made using the appropriate parametric test against controls.

Assay [2] has as its system adult mongrel dogs. The assay can be described thus: Renal vasodilating activity in anesthetized dogs. Conditions: Canis lupus familiaris, relative to controls; for change in vivo at 6.2 mg/kg: 6.2 mg/kg intravenous; for change in vivo at 1.2 mg/kg: 1.2 mg/kg intravenous; for change in vivo at 0.2 mg/kg: 0.2 mg/kg intravenous. The assay is classed as in vivo, dog (adult mongrel). As for the experimental part: Goldberg et al, J. Pharmacol. Exp. Ther., 163, 188 (1968), performed an investigation of the structural requirements for dopamine-like renal vasodilation of phenethylamines and apmorphine. The following procedure is a variation of the assay described in that report.
Adult mongrel dogs were anesthetized and surgically prepared for electromagnetic measurement of renal artery blood flow. A carotid artery was cannulated for measuring arterial blood pressure, and drugs were administered intravenously or intraarterially (via the renal artery). Heart rate was monitored with a cardiotachometer. Renal vascular resistance was calculated as the ratio of mean arterial blood pressure/renal artery blood flow. Dopamine was infused intravenously at […] for ten minutes (at an infusion rate of about 1 ml/min) to determine responsiveness of each dog to renal dopamine receptor stimulation. Cumulative dose-response data were obtained by infusing a compound of this invention at progressively increasing (usually three-fold) infusion rates, esch dose being infused for five minutes. The maximum percent increase from pre-drug control in renal artery blood flow (or a decrease in renal vascular resistance) was determined for each infusion dose.
RBF values are percent increase in renal blood flow. RVR values are percent increase in renal vascular resistance. MABP and HR are increases in mean arterial blood pressure and heart rate, respectively, relative to controls.

[3] abbreviates: read-out: CF, percent change in cardiac force.
Setting [4] is: read-out: HR, percent change in heart rate.
Where [5] appears, read: read-out: MABP, mean arterial blood pressure.
Setting [6] is: read-out: dP/dt, maximum change left ventricular pressure with time.
Setting [7] is: read-out: RBF, renal blood flow.
Where [8] appears, read: read-out: RVR, renal vascular resistance.

Consider `COc1cc2c(C)nc(O)c(NC(C)=O)c2cc1OC` [Compound BG, 4-Acetamido-3-hydroxy-6,7-dimethoxy-1-methylisoquinoline Hemihydrate], for which the change in vivo at 8.75 mg/kg was 47% in the assay with adult mongrel dogs [1] (setting [3]), 5% in the assay with adult mongrel dogs [1] (setting [4]), -3% in the assay with adult mongrel dogs [1] (setting [5]) and 33% with adult mongrel dogs [1] (setting [6]). Moreover, the change in vivo at 6.2 mg/kg in the assay on adult mongrel dogs [2] (setting [4]) was 14%; with adult mongrel dogs [2] (setting [5]) it was 6%; in the assay with adult mongrel dogs [2] (setting [7]) it was 39%; with adult mongrel dogs [2] (setting [8]), -24%.

Regarding `O=[N+]([O-])c1c(O)ncc2cc3c(cc12)OCO3` [Compound BC], the change in vivo at 1.875 mg/kg in the assay with adult mongrel dogs [1] (setting [3]) was 16%; in the assay on adult mongrel dogs [1] (setting [4]), 0%; with adult mongrel dogs [1] (setting [5]), -7.5%; with adult mongrel dogs [1] (setting [6]), 22%. Further, the change in vivo at 1.2 mg/kg in the assay with adult mongrel dogs [2] (setting [4]) was -6%; in the assay on adult mongrel dogs [2] (setting [5]), -14%; in the assay on adult mongrel dogs [2] (setting [7]) it was 20%; in the assay with adult mongrel dogs [2] (setting [8]), -28%.

In the case of `CCOc1cc2c([N+](=O)[O-])c(O)nc(C)c2cc1OC` [BAN], the change in vivo at 0.12 mg/kg is 49% in the assay on adult mongrel dogs [1] (setting [3]), 4% in the assay with adult mongrel dogs [1] (setting [4]), -18% in the assay with adult mongrel dogs [1] (setting [5]) and 12% with adult mongrel dogs [1] (setting [6]). Further, the change in vivo at 6.2 mg/kg with adult mongrel dogs [2] (setting [4]) is -5%; with adult mongrel dogs [2] (setting [5]), 1%; in the assay with adult mongrel dogs [2] (setting [7]) it was 61%; in the assay with adult mongrel dogs [2] (setting [8]), -37%.

In the case of `COc1cc2c(C)nc(O)c([N+](=O)[O-])c2cc1OC` [Compound BA, 3-Hydroxy-6,7-dimethoxy-1-methyl-4-nitroisoquinoline], the change in vivo at 0.15 mg/kg in the assay with adult mongrel dogs [1] (setting [3]) is 92%; with adult mongrel dogs [1] (setting [4]), 8%; in the assay with adult mongrel dogs [1] (setting [5]), -19%; with adult mongrel dogs [1] (setting [6]), 63%. The change in vivo at 0.2 mg/kg with adult mongrel dogs [2] (setting [4]) is 83%; in the assay on adult mongrel dogs [2] (setting [5]) it was -12%; in the assay with adult mongrel dogs [2] (setting [7]), 14%; in the assay with adult mongrel dogs [2] (setting [8]), -23%.
